{"source": "patent US11028084B2", "about": "“Selective inhibitors of gentotoxic steress-induced IKK/NF-κB pathways” (Max-Delbrück-Centrum für Molekulare Medizin in der …, priority 2016, dated 2021)", "key": {"[1]": {"tested_on": "ATM cytoplasmic translocation", "experiment": "Cytoplasmic accumulation of ATM, fractionation experiment (NE/CE) with WB, HepG2 cells", "format": "cell-based, human", "details": "5 μM", "method": "FIG. 7: Cytoplasmic accumulation of ATM. (A) Fractionation experiment with separated nuclear extracts (NE) and cytoplasmic extracts (CE). PARP1 and LDH staining served as loading and fractionation controls. Cells were pre-treated with DMSO or MW01 (5 μM) prior to irradiation and cell harvesting at indicated times. NE and CE were subjected to SDS-PAGE/WB procedure. (B) U2OS cells were seeded on cover slips 2 days before treatment. The cells were pre-treated with solvent DMSO alone or with MW01 prior to irradiation, cell fixation and subsequent immunofluorescence staining.\nFor the preparation of nuclear and cytoplasmic fractions, cells were lysed with buffer A (supplemented with 1 mM DTT, 10 mM NaF, 20 mM β-glycerophosphate, 250 nM NaVO3, complete protease inhibitor cocktail (Roche) and 50 nM calyculin A. Lysates were adjusted to a final concentration of 0.2% NP-40, vortexed for 10 s and spun down. The supernatant, representing the cytoplasmic extract (CE), was transferred into a new 1.5 ml reaction tube. The pellet was washed with buffer A, was resuspended with buffer C and shaken for 20 min at 4° C. Following 10 min of centrifugation at 14,000 rpm, the supernatant, representing the nuclear extract (NE), was transferred into a new reaction cap."}, "[2]": {"tested_on": "ATM substrate histone H2AX", "experiment": "Phospho-H2AX immunofluorescence after etoposide, U2OS cells", "format": "cell-based, human", "details": "after etoposide treatment", "method": "FIG. 2: U2OS cells were pre-treated and incubated with DMSO or MW01. DNA damage was induced by administration of etoposide. After 2 h cells were fixed, nuclei were stained with DAPI. p65 and phospho-H2AX, which is indicative for DNA DSB, were stained by immunofluorescence. Images were taken at a confocal Zeiss 710 LSM with a 40× oil objective."}, "MEF cells": {"tested_on": "MEF cells", "experiment": "Annexin V staining, flow cytometry, MEF cells", "format": "cell-based, mouse", "method": "FIG. 16: (A) U2OS cells were pre-treated with DMSO or MW01 and irradiated. Cells were lysed 8 h post γ-IR and were used for western blotting and immunochemical staining. (B) HEK293 cells were pre-treated with DMSO or MW01 and irradiated. After 48 h cells were fixed and stained with crystal violet. Dissolved crystal violet was used for absorbance measurement in a visible light spectrophotometer at a wavelength of 595 nm. (C) HEK293 cells were pre-treated with DMSO or MW01 and irradiated. The percentage of viable cells within the population was calculated by exclusion of annexin V and propidium-iodide positive cells measured by flow cytometry. (D) MEF cells were pre-treated with DMSO or MW01 and irradiated. Cells were used for annexin V staining 24 h and 48 after γ-IR. Percentage of annexin V positive cell population was analysed using a flow cytometer. (E) Experiment done as shown in (D) but with HT1080 cells processed 8 h after irradiation. Statistical significance was calculated using students t-test.\nCells were washed with ice-cold PBS and detached from growing dishes using Trypsin/EDTA solution. Detached cells were centrifuged at 300×g for 5 min. Detection of early apoptotic cells was performed by staining with annexin V-FITC antibody according to manufacturer's instructions (eBioscience Annexin V-FITC Apoptosis detection Kit). Necroptotic and late apoptotic cells were stained by addition of propidium iodide (final concentration 1 μg/ml) prior to measurements.\nThe sensitising effect of MW01 on cells was tested in MEF cells with a low irradiation dose of 2 Gy, an amount cells are able to repair. Cells were pre-treated with MW01, irradiated and cells were analysed by annexin V staining 24 or 48 h after irradiation. After 24 h, the treatment of cells with MW01 led to an increase of annexin V positive cells of about 10%. […] Comparing the annexin V positive cells of MW01 treated and MW01/γ-IR co-treated samples, a sensitising effect for low γ-irradiation dose-induced apoptosis of about 12% was found (FIG. 16 D)."}, "p65 S536 phosphorylation": {"tested_on": "p65 S536 phosphorylation", "experiment": "p65 S536 phosphorylation after γ-IR or etoposide, SDS-PAGE/WB, U2OS cells", "format": "cell-based, human", "details": "γ-IR", "method": "FIG. 3: (A) U2OS cells were pre-treated with increasing concentrations of MW01 in duplicates in a 384 well plate. Then, cells were treated with etoposide, fixed and subjected to IF of p65. Spatial measurement of p65 cytosolic and nuclear localisation was used for calculation of p65 translocation rates. (B) U2OS cells were pre-treated with DMSO, MW01 and irradiated with γ-IR. After 90 min cells were lysed and subjected to SDS-PAGE/WB and EMSA. (C) Cells were pre-treated with different concentrations of MW01 as indicated, treated with γ-IR (C) or etoposide (D) and subjected to WB or EMSA, respectively. LDH in (C) represents the loading control.\nFIG. 14: (A) U2OS cells were pre-treated with different concentrations of olaparib prior to co-treatment with etoposide. Whole cell lysis was performed after 90 min and cleared lysates were used for WB with indicated antibodies. (B) U2OS cells were pre-treated with DMSO, olaparib or the ATM inhibitor Ku55933 and co-treated with etoposide. Cells were harvested after 45 min and subjected to SDS-PAGE/WB. Membranes were stained with the indicated antibodies. The experiment of (B) was performed simultaneously to the experiments of (A) and (E) to control functionality of olaparib in inhibiting PAR chain formation. (C) Densitometrical analyses of (A) and two further independent experiments done as shown in (A). (D) U2OS cells were pre-treated with the substances as indicated prior to irradiation. After 90 min mRNA was isolated, transcribed into cDNA and was used for expression analyses of the indicated genes using quantitative real-time PCR (qRT-PCR). (E) HepG2 cells were pre-treated with the PARP inhibitors olaparib, 3-AB and EB-47 prior to γ-irradiation. […]\nAfter transfer of proteins on PVDF membranes unspecific binding of antibodies was blocked by incubation of membranes in 5% skim milk powder in TBST buffer (or 3% BSA in TBST for phosphorylation-specific antibodies) for 1 h at RT. […] After three times of washing with TBST and once with PBS for 5 min, chemiluminescent photon emission was detected using a CCD camera system (Fusion Solo). […]"}}, "data": [{"smiles": "COc1ccc2c(c1OC)c(=O)n1c3ccc(O)cc3c3ccnc2c31", "note": "[MW01, 12-hydroxy-6,7-dimethoxy-8H-benzo[c]indolo[3,2,1-ij][1,5]naphthyridin-8-one]", "values": [{"measurement": "accumulation of total ATM in the cytoplasm", "setting": "[1]; 45 min after irradiation", "value": "inhibited the accumulation of ATM in the cytoplasm"}, {"measurement": "detection of phosphorylated ATM in nuclear extracts", "setting": "[1]; 45 min and 90 min after irradiation", "value": "did not affect"}, {"measurement": "detection of activated ATM species in the cytoplasmic extracts", "setting": "[1]; after irradiation", "value": "abolished"}, {"measurement": "phosphorylation of the ATM substrate histone H2AX", "setting": "[2]", "value": "did not lead to impaired phosphorylation"}, {"measurement": "increase of annexin V positive cells", "setting": "MEF cells; 24 h, without IR", "value": "about 10%"}, {"measurement": "sensitising effect for low γ-irradiation dose-induced apoptosis", "setting": "MEF cells; MW01 vs MW01/γ-IR co-treated samples", "value": "about 12%"}, {"measurement": "annexin V staining of cells", "setting": "MEF cells; after 2 Gy of γ-irradiation", "value": "circa 34%"}, {"measurement": "p65 S536 phosphorylation following γ-IR", "setting": "p65 S536 phosphorylation", "value": "concentration dependent inhibition of p65 S536 phosphorylation"}]}]}
